Assay results taken from patent publication US5876694A, “Azavesamicols” (priority 1997, dated 1999).

Assays:
vesamicol receptor [1] = settings: cited from earlier work
[2] = system: cholinergic neurotransmission; assay: In vivo anticholinergic activity in mice (spasms, respiratory distress, paralysis, death); design: key to Pharmacological activity in mice: LD: lethal dose; NR: no visible pharmacological reaction; +: visible anticholinergic effects; S: sluggishness and reduced locomotor activity
Description: in vivo anticholinergic activity was evaluated in mice. Blockade of cholinergic neurotransmission (or anticholinergic activity) was manifested in a rapidly developing respiratory distress, spasms and paralysis. At lethal doses these symptoms were followed by death within 10 min. As evident in Table 3, several of the compounds tested were lethal at doses as low as 5 and 10 umol/Kg. […] All of the potent compounds belong to the 1,4 series, an observation consistent with the in vitro data discussed above.
^a Group of mice (n = 2) received selected doses of the compounds by
activity: spasms, respiratory distress, paralysis. At lethal doses, death
generally occurred within 10 min following the injection.

vesamicol receptor [3] = target: T1, vesamicol receptor (Tetronarce californica, UniProt P81721); assay: Inhibition of [^3 H]vesamicol binding to highly purified synaptic vesicles (electric organ of Torpedo Californica); settings: for in vitro potency (in words): relative to comparator compounds
T1 sequence (P81721 1-515): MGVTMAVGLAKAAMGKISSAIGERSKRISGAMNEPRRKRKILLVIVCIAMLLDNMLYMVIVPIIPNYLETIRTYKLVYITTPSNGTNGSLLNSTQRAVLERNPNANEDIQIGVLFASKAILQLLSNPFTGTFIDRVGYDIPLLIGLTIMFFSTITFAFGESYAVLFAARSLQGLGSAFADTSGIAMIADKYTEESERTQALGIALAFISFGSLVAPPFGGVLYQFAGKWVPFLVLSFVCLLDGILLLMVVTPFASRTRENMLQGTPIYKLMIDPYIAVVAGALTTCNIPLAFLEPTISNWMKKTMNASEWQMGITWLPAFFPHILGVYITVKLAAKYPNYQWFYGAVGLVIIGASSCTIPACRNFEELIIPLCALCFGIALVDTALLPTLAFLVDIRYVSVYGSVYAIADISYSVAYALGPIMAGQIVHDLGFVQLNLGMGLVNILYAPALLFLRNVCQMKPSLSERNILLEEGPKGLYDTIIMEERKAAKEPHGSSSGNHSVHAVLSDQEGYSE
Source text: vesicles harvested from the electric organ of Torpedo Californica.
^b Data obtained from Bahr and Parsons (1986).
IC50 values are quoted ±1 standard deviation.
^d Obtained from Efange et al. (1991).

[4] = .30 umol/Kg (so in the source) ip
[5] = .60 umol/Kg (so in the source) ip

## OC(Cc1ccc(Br)cc1)CN1CCC(c2ccccc2)CC1 (racemic) [(dl)-4c]
Vesamicol receptor [1]; 4c relative to 4a
  increase in potency: 59 times

## O[C@H]1CNCC[C@@H]1N1CCC(c2ccccc2)CC1 (relative stereo) [Compound 5, 3-Hydroxy-4-(4-phenylpiperidinyl)piperidine]
[2]; [4]
  Pharmacological activity in mice: NR

## O[C@H]1CCNC[C@@H]1N1CCC(c2ccccc2)CC1 (relative stereo) [Compound 6]
[2]; [4]
  Pharmacological activity in mice: NR

## O=C(c1ccccc1)N1CC[C@H](N2CCC(c3ccccc3)CC2)[C@@H](O)C1 (relative stereo) [Compound 9a, 1-Benzoyl-3-hydroxy-4-(4-phenylpiperidinyl)piperidine]
[2]; [5]
  Pharmacological activity in mice: LD

## O=C(c1ccccc1)N1CC[C@H](O)[C@@H](N2CCC(c3ccccc3)CC2)C1 (relative stereo) [Compound 10a, 1-Benzoyl-4-hydroxy-3-(4-phenylpiperidinyl)piperidine]
[2]; [4]
  Pharmacological activity in mice: LD

## O=C(c1ccccc1I)N1CC[C@H](O)[C@@H](N2CCC(c3ccccc3)CC2)C1 (relative stereo) [Compound 10b, 4-Hydroxy-1-(2-iodobenzoyl)-3-(4-phenylpiperidinyl)piperidine]
[2]; 2.5 umol/Kg ip
  Pharmacological activity in mice: NR
[2]; 20 umol/Kg ip
  Pharmacological activity in mice: +

## O[C@H]1CN(Cc2ccccc2)CC[C@@H]1N1CCC(c2ccccc2)CC1 (relative stereo) [Compound 11a]
[2]; 10 umol/Kg ip
  Pharmacological activity in mice: NR
[2]; 20 umol/Kg ip
  Pharmacological activity in mice: +

## O[C@H]1CN(Cc2ccccc2Br)CC[C@@H]1N1CCC(c2ccccc2)CC1 (relative stereo) [Compound 11b]
[2]; 5.0 umol/Kg ip
  Pharmacological activity in mice: NR
[2]; 10 umol/Kg ip
  Pharmacological activity in mice: +
Vesamicol receptor [3]
  in vitro potency (in words): slight but noticeable increase in activity

## O[C@H]1CN(Cc2cccc(Br)c2)CC[C@@H]1N1CCC(c2ccccc2)CC1 (relative stereo) [Compound 11c]
[2]; 10 umol/Kg ip
  Pharmacological activity in mice: NR
[2]; 20 umol/Kg ip
  Pharmacological activity in mice: NR
[2]; [5]
  Pharmacological activity in mice: NR
[2]; footnote c, .60 umol/Kg (so in the source) ip
  hind leg paralysis in mice: Hind legs remained visibly paralyzed
[2]; postinjection, footnote c, .60 umol/Kg (so in the source) ip
  duration of visible hind leg paralysis: at least 15 min

## O[C@H]1CN(Cc2ccc(Br)cc2)CC[C@@H]1N1CCC(c2ccccc2)CC1 (relative stereo) [Compound 11d]
[2]; 10 umol/Kg ip
  Pharmacological activity in mice: NR

## O[C@H]1CCN(Cc2ccccc2)C[C@@H]1N1CCC(c2ccccc2)CC1 (relative stereo) [Compound 12a]
[2]; 10 umol/Kg ip
  Pharmacological activity in mice: LD
Vesamicol receptor [3]
  in vitro potency (in words): increased potency

## O[C@H]1CCN(Cc2ccc(F)cc2)C[C@@H]1N1CCC(c2ccccc2)CC1 (relative stereo) [Compound 12d]
[2]; 10 umol/Kg ip
  Pharmacological activity in mice: LD
Vesamicol receptor [3]
  in vitro potency (in words): enhances potency

## O[C@H]1CCN(Cc2ccccc2Br)C[C@@H]1N1CCC(c2ccccc2)CC1 (relative stereo) [Compound 12e]
[2]; 10 umol/Kg ip
  Pharmacological activity in mice: LD

## O[C@H]1CCN(Cc2cccc(Br)c2)C[C@@H]1N1CCC(c2ccccc2)CC1 (relative stereo) [Compound 12f]
[2]; 5.0 umol/Kg ip
  Pharmacological activity in mice: NR
[2]; 10 umol/Kg ip
  Pharmacological activity in mice: LD

## O[C@H]1CCN(Cc2ccc(Br)cc2)C[C@@H]1N1CCC(c2ccccc2)CC1 (relative stereo) [Compound 12g, 1-(4-Bromobenzyl)-4-hydroxy-3-(4-phenylpiperidinyl)piperidine]
[2]; 10 umol/Kg ip
  Pharmacological activity in mice: +
[2]; 20 umol/Kg ip
  Pharmacological activity in mice: LD

## O[C@H]1CCN(Cc2cccc(I)c2)C[C@@H]1N1CCC(c2ccccc2)CC1 (relative stereo) [Compound 12h]
[2]; 1.3 umol/Kg ip
  Pharmacological activity in mice: NR
[2]; 5.0 umol/Kg ip
  Pharmacological activity in mice: LD

## O=[N+]([O-])c1ccc(N2CC[C@H](O)[C@@H](N3CCC(c4ccccc4)CC3)C2)cc1 (relative stereo) [Compound 12l, 4-Hydroxy-1-(4-nitrophenyl)-3-(4-phenylpiperidinyl)piperidine]
[2]; .15 umol/Kg (so in the source) ip
  Pharmacological activity in mice: NR

## O=C(c1ccccc1)N1CC[C@H](O)[C@@H](N2CCC(c3ccccc3)CC2)C1 [(+)-10a]
[2]; 2.5 umol/Kg
  anticholinergic effects in mice: elicited anticholinergic effects
[2]; 2.5 umol/Kg ip
  Pharmacological activity in mice: +
[2]; 5.0 umol/Kg ip
  Pharmacological activity in mice: LD
[2]; [4]
  Pharmacological activity in mice: LD

## O=C(c1ccccc1)N1CC[C@@H](O)[C@H](N2CCC(c3ccccc3)CC2)C1 [(-)-10a]
[2]; 5.0 umol/Kg ip
  Pharmacological activity in mice: +
Vesamicol receptor [3]; inhibition of [^3 H]vesamicol binding, hydrochlorides, ±1 standard deviation
  IC50: 100 ± 30 nM

## CC(C)(C)C1CC[C@@H](O)[C@H](N2CCC(c3ccccc3)CC2)C1 (stereo partly shown) [Compound 3]
Vesamicol receptor [1]; earlier studies
  vesamicol receptor affinity (in words): potent ligands
